Laboratory results reported in patent publication US8022051B2, “Composition for protection and improvement of skin, or reinforcing skin barrier function comprising phosphatidylserine” (Doosan Corporation, priority 2004, dated 2011).

Legend:
[1] = system: erythema formation due to UVB on arm inside parts of examinees; assay: Suppression of skin damage (erythema formation) due to ultraviolet irradiation in examinees; assay type: in vivo, human; details: 0.5% aqueous solution, 30 μl pre-applied; UVB 2, 3 and 4 MED; compared to the control group; FIG. 1
Description: In order to examine a skin damage (inflammatory response)-alleviating effect of the phosphatidylserine of the invention, which stimulation results from the ultraviolet irradiation, a following experiment was performed. At this time, the skin stimulation (inflammatory response) due to the ultraviolet irradiation was measured with an erythema formation level.
First, it was measured minimal erythma dosage (MED) in arm inside parts of examinees (28 years old or more, 10 women and men, respectively). An aqueous solution including phosphatidylserine 0.5% (aqueous solution phase containing 5% PEG 300; PEG300, Sigma, US) was previously applied to the arm inside parts of the examinees in an amount of 30 μl which were then irradiated with UVB (Sankyo Denki G15T8E sunlamps UV-B, Japan) in an intensity of 2 MED (78 mj/cm^2), 3 MED (117 mj/cm^2) and 4 MED (156 mj/cm^2) to measure suppression degrees of the erythema formation. At this time, a group for which the phosphatidylserine was not treated was used as a control group.

[2] = system: skin of back region of CD-1 mouse; assay: Skin differentiation promotion in the mouse (involucrin and loricrin expression); assay type: in vivo; details: 0.5% aqueous solution, 50 μl two times per day for two weeks; compared to negative control group; FIG. 6
Description: In order to examine a differentiation promotion of the skin in a mouse model, a following experiment was performed.
First, 0.5% phosphatidylserine aqueous solution was applied to the skin of a back region of the mouse (CD-1 mouse, male&female, 6-8 weeks, Charles River, USA) in an amount of 50 μl two times per a day for two weeks. After that, the skin tissue of the treated region was subject to the biopsy and then the biopsy tissue was fixed to 4% formaldehyde and sliced. Then, antibodies for involucrin and loricrin were attached and an expression amount of the protein was examined.

[3] = system: skin keratinocytes (HaCaT); assay: Protection from ROS (hydrogen peroxide) in skin keratinocytes (MTT assay); assay type: cell-based; details: FIG. 8
Description: In order to measure an effect of protecting the skin from the ROS in the keratinocyte by the phosphatidylserine of the invention, a following experiment was performed.
First, the skin keratinocytes (HaCaT) were seeded to the 24-well plate in an amount of 5×10^4 cells/well. Next day, it was treated with 25 μM phosphatidylserine aqueous solution (Doosan Biotech, Korea) (phosphatidylserine-treated group), 100 μM vitamin C (ascorbic acid-treated group) and 100 μM vitamin E (a-tocopherol-treated group) as the positive control group and then cultured for 24 hours. Next day, it was treated with 1 mM hydrogen peroxide (H2O2) and then cultured for about 1˜1.5 hours. Then, a cell viability was examined with the MTT assay.

[4] = system: normal human keratinocytes; assay: Differentiation promoting effect in skin keratinocytes (western blot of involucrin and transglutaminase); assay type: cell-based; details: phosphatidylserine 20 and 40 μM, calcium 1.2 mM, clofibrate 200 and 400 μM; 24 hours; FIG. 5
Description: In order to examine a differentiation promoting effect in the skin keratinocytes by the phosphatidylserine of the invention, a following experiment was performed. First, the normal human keratinocytes (a gift from Dong-guk University) cultured in the KSFM (Keratinocyte-SFM; Gibco BRL/Life Technologies, USA) were seeded to the 35 mm^2 cell culture dish in an amount of 1.5×10^5 cells/dish and then cultured for a day. Next day, the culture medium was removed and a new culture medium containing 20 and 40 μM of phosphatidylserine aqueous solution, 1.2 mM calcium aqueous solution and 200 and 400 μM of clofibrate (Sigma, USA) added thereto was added and cultured for 24 hours. Next day, in order to make sure of a differentiation of the keratinocyte, a morphology change of the cell was checked with a phase contrast microscope (Nikon, Japan) and a photograph was taken with a digital camera attached to the microscope. In addition, a western blot was performed to check the protein expression amount of involucrin and transglutaminase, which have been known as a differentiation-marker proteins of the keratinocyte peculiar to the keratin. 500 μl of a lysis buffer having 2% sodium dodecyl sulfate (SDS) added thereto wad added and the cells were collected with a cell scrapper, so that cell lysate only was obtained. […]

[5] = system: skin keratinocyte cell line (HaCaT) and normal human keratinocytes; assay: Reduction of inflammatory response induced by ultraviolet irradiation in skin keratinocytes (ELISA of TNF-a, IL-6, IL-1alpha); assay type: cell-based; details: 25 mJ/cm^2 UVB; phosphatidylserine 20 and 40 μM, WY-14643 200 μM; 24 hours; FIG. 3
Description: In order to examine an inflammatory response-reducing effect of the phosphatidylserine of the invention in the skin keratinocyte, which response results from the ultraviolet irradiation, a following experiment was performed in accordance with a method disclosed in the literature (Stefan et. al., The Journal of Investigate Dermatology, 117, pp 1430-1436, 2001).
First, the skin keratinocyte cell line (HaCaT, a gift from Yonsei univeritym, Korea) was seeded to a 35 mm^2 of cell culture dish in an amount of 3×10^5 cells/dish and then cultured for a day. Next day, the culture medium was removed and the cell was washed with 1× phosphate-buffered saline (PBS), 700 μl of 1×PBS was added to each of the dishes, it was irradiated 25 mJ/cm^2 UVB and then PBS was removed. […] Next day, the culture medium was collected and then amounts of TNF-a and IL-6 which have been known as inflammatory cytokines were measured with an enzyme-linked immunosorbent assay (ELISA) method. In addition, in order to check that there occurred a similar inflammatory response reducing effect also in the normal human skin keratinocyte, an experiment was performed in the above-mentioned manner using normal human keratinocytes (a gift from Dong-guk University) instead of the HaCaT cell line and then an amount of IL-1alpha secreted to the culture medium was measured with the ELISA.

With phosphatidylserine the erythema formation [1] was “considerably suppressed”, the “expression amounts of involucrin and loricrin in skin” value [2] was “remarkably increased” and the “protection effect from reactive oxygen species compared with the positive control material” value ([3]; phosphatidylserine 25 μM versus 100 μM positive controls) was “same protection effect with a smaller amount”. The “protection effect from reactive oxygen species (cell viability, MTT)” value ([3]; phosphatidylserine 25 μM, vitamin C 100 μM, vitamin E 100 μM, 24 hours, then 1 mM H2O2 about 1-1.5 hours) was “exhibited the protection effect”, the “protein expression of involucrin and transglutaminase” value [4] was “rapidly increased the expressions of the proteins” and the “inflammatory response increased due to the ultraviolet irradiation (TNF-a, IL-6, IL-1alpha amounts)” value [5] was “considerably alleviated”.
